Experimental data from the supplement of paper PMC8882468.

What was measured:
Experiment in all cases: CTG-3D luminescence at 96 h relative to day-0 seeding control (ratio to day 0); higher = more growth / less cytotoxicity; PDxO 3D drug screen, 96 h, CTG-3D normalised to day-0 seeding control.
HCI-017.E2 = test system: HCI-017.E2 (organoid from an ER-positive breast cancer xenograft)
HCI-023 = test system: HCI-023 (organoid from a triple-negative breast cancer xenograft)
HCI-027 = test system: HCI-027 (organoid from a triple-negative breast cancer xenograft)
HCI-008 = test system: HCI-008 (organoid from a HER2-enriched breast cancer xenograft)
MDA-MB-231 = test system: MDA-MB-231
HCI-010 = test system: HCI-010 (organoid from a breast cancer xenograft)
HCI-015 = test system: HCI-015 (organoid from a triple-negative breast cancer xenograft)

CC(C)n1nc(-c2ccc3oc(N)nc3c2)c2c(N)ncnc21 [sapanisertib]
CTG-3D luminescence at 96 h
Conditions	12.5 pM	0.00025 µM	0.005 µM	0.1 µM	1 µM	10 µM	100 µM	625 fM
HCI-017.E2	1.69	2.18	1.703	0.694	0.493	0.251	0.126	2.02
MDA-MB-231	4.45	4.42	4.45	2.89	2.2	1.22	0.518	4.61

CTG-3D luminescence at 96 h
Conditions	12.5 pM	0.00025 µM	0.005 µM	0.1 µM	1 µM	10 µM	100 µM	625 fM
HCI-008, days in culture: 228	1.63	1.78	0.85	0.502	0.33	0.185	0.0307	1.78
HCI-008, days in culture: 244	1.15	1.75	1.82	0.854	0.511	0.267	0.0296	2.11
HCI-010, days in culture: 52	2.19	2.6	1.89	0.958	0.693	0.249	0.011	2.4
HCI-010, days in culture: 65	1.61	1.71	1.34	0.701	0.447	0.0873	0.00591	1.71
HCI-010, days in culture: 103	3.65	3.1	3	1.48	1.26	0.555	-0.00132	3.02
HCI-015, days in culture: 172	2.06	1.81	1.9	0.761	0.765	0.544	0.204	2.17
HCI-015, days in culture: 191	1.67	1.6	1.4	0.411	0.69	0.363	0.165	1.72
HCI-015, days in culture: 218	1.96	1.53	1.59	0.561	0.547	0.511	0.156	1.77
HCI-017.E2, days in culture: 85	2.96	2.53	2.39	0.979	0.43	0.202	0.141	2.59
HCI-023, days in culture: 111	1.32	1.65	1.1	0.701	0.401	0.462	0.0354	1.44
HCI-023, days in culture: 128	1.42	1.44	0.963	0.727	0.428	0.484	0.0623	1.75
HCI-027, days in culture: 176	2.05	1.48	2.22	0.7	0.529	0.264	0.0926	1.82
HCI-027, days in culture: 194	1.72	1.59	1.5	0.847	0.824	0.441	0.102	1.57
HCI-027, days in culture: 201	2.25	1.83	2.1	0.956	0.784	0.301	0.141	2.47

Cc1nc(-c2cn3c(n2)-c2ccc(-c4cnn(C(C)(C)C(N)=O)c4)cc2OCC3)n(C(C)C)n1 [taselisib]
CTG-3D luminescence at 96 h
Conditions	12.5 pM	0.00025 µM	0.005 µM	0.1 µM	1 µM	10 µM	100 µM	625 fM
HCI-017.E2	1.88	1.78	1.32	0.638	0.448	0.204	0.178	2.06
MDA-MB-231	4.54	4.45	4.53	4.29	3.9	2.97	1.22	4.58

CTG-3D luminescence at 96 h
Conditions	12.5 pM	0.00025 µM	0.005 µM	0.1 µM	1 µM	10 µM	100 µM	625 fM
HCI-008, days in culture: 228	1.62	1.54	1.28	0.687	0.439	0.314	0.174	1.8
HCI-008, days in culture: 244	1.38	1.94	1.92	0.848	0.448	0.358	0.123	2.25
HCI-010, days in culture: 52	2.17	2.09	1.97	2.31	1.65	0.735	0.0132	2.15
HCI-010, days in culture: 65	1.89	1.84	1.88	1.78	1.24	0.457	0.00794	1.82
HCI-010, days in culture: 103	3.55	3.66	3.45	3.46	2.33	0.906	0.0169	2.92
HCI-015, days in culture: 172	2.38	1.78	2.27	1.48	1.4	0.489	0.178	3.06
HCI-015, days in culture: 191	2.01	1.36	1.67	0.905	1.12	0.541	0.0414	1.56
HCI-015, days in culture: 218	2.32	1.88	1.69	1.55	0.988	0.617	0.0074	2.08
HCI-017.E2, days in culture: 85	3.03	2.91	1.97	0.848	0.668	0.194	0.166	2.38
HCI-023, days in culture: 111	1.53	1.41	1.4	0.966	0.707	0.842	0.0187	1.35
HCI-023, days in culture: 128	1.9392	1.52	1.88	1.68	1.2	1.18	0.33	1.86
HCI-027, days in culture: 176	1.91	1.52	2.2	1.11	1.31	0.095	0.0289	1.82
HCI-027, days in culture: 194	1.73	1.53	1.35	1.11	1.6	0.208	0.00956	1.77
HCI-027, days in culture: 201	2.55	2.73	2.59	1.88	1.72	0.173	0.031	2.81

Cc1cc(Nc2ncnc3ccc(NC4=NC(C)(C)CO4)cc23)ccc1Oc1ccn2ncnc2c1 [tucatinib]
CTG-3D luminescence at 96 h
Conditions	12.5 pM	0.00025 µM	0.005 µM	0.1 µM	1 µM	10 µM	100 µM	625 fM
HCI-017.E2	1.74	1.98	2.09	1.95	1.79	1.413	0.0205	1.96
MDA-MB-231	4.57	4.49	4.6	4.56	4.67	4.64	0.058	4.58

CTG-3D luminescence at 96 h
Conditions	12.5 pM	0.00025 µM	0.005 µM	0.1 µM	1 µM	10 µM	100 µM	625 fM
HCI-008, days in culture: 228	1.79	1.66	1.49	1.85	1.83	1.5	0.0233	1.8641
HCI-008, days in culture: 244	1.41	1.81	2.11	1.99	1.83	1.84	0.0167	2.29
HCI-010, days in culture: 52	2.07	2.16	2.18	2.37	2.53	2.2	0.0134	2.34
HCI-010, days in culture: 65	1.6	1.68	1.97	1.81	1.83	1.4	0.008	1.64
HCI-010, days in culture: 103	3.37	3.95	3.45	3.39	3.5	2.84	0.014	3.37
HCI-015, days in culture: 172	2.53	1.9	2.05	1.54	1.91	1.53	0.0569	2.67
HCI-015, days in culture: 191	1.69	1.49	1.75	0.921	1.58	0.759	0.0182	1.67
HCI-015, days in culture: 218	2.15	1.83	1.97	1.85	1.5	1.64	0.0854	1.8
HCI-017.E2, days in culture: 85	2.39	3.33	2.72	2.78	3.27	1.71	0.109	2.31
HCI-023, days in culture: 111	1.15	1.13	1.06	1.2	0.941	1.06	0.00921	1.65
HCI-023, days in culture: 128	1.78	1.62	1.59	2.03	1.5	1.59	0.0109	1.69
HCI-027, days in culture: 176	2.4	1.31	2.9	2.1	1.61	0.414	0.0112	1.82
HCI-027, days in culture: 194	1.81	1.55	1.49	1.66	2.06	1.41	0.0114	1.7
HCI-027, days in culture: 201	2.47	2.58	2.3	2.28	2.1	0.716	0.01	2.42
